Laboratory results: the NIST ThermoML archive (doi:10.1016/j.fluid.2017.01.024)
Several values for one entry are separate records, joined by “and”; a condition that tells them apart may be missing. Identical values can stand only once. Numbers after ± are expanded uncertainties.

Conditions: Liquid, Closed cell (Static) method

SMILES | vapor or sublimation pressure (283.15 K) | vapor or sublimation pressure (293.15 K) | vapor or sublimation pressure (303.15 K) | vapor or sublimation pressure (313.15 K) [kPa] | vapor or sublimation pressure (323.15 K) | vapor or sublimation pressure (288.15 K) [kPa] | vapor or sublimation pressure (293.16 K) [kPa] | vapor or sublimation pressure (298.15 K) [kPa] | vapor or sublimation pressure (308.16 K) [kPa] | vapor or sublimation pressure (313.16 K) [kPa] | vapor or sublimation pressure (318.16 K) [kPa] | vapor or sublimation pressure (288.16 K) [kPa] | vapor or sublimation pressure (298.14 K) [kPa] | vapor or sublimation pressure (308.15 K) [kPa] | vapor or sublimation pressure (318.15 K) [kPa]
FCF [difluoromethane] | 1107.3 ± 3.5 kPa | 1474 ± 4.7 kPa | 1925.8 ± 6.1 kPa | 2476.2 ± 7.8 | 3138 ± 9.8 kPa |  |  |  |  |  |  |  |  |  | 
C=C(F)C(F)(F)F [2,3,3,3-tetrafluoro-1-propene] | 437.4 ± 1.2 kPa and 437.4 ± 1.6 kPa | 591.7 ± 2 kPa | 782.5 ± 2.5 kPa and 782.5 ± 1.6 kPa | 1017.8 ± 3.2 | 1301.4 ± 4.1 kPa and 1301.4 ± 2.2 kPa | 509.9 ± 1.3 | 591.7 ± 1.4 | 681.9 ± 1.4 | 893.6 ± 1.7 | 1017.8 ± 1.8 | 1153.2 ± 2 |  |  |  | 
CCF [fluoroethane] | 601.4 ± 1.4 kPa and 601.4 ± 2 kPa | 805.6 ± 2.6 kPa and 805.6 ± 1.6 kPa | 1057.4 ± 3.3 kPa and 1057.4 ± 1.9 kPa | 1363.6 ± 4.3 | 1730.6 ± 5.4 kPa and 1730.6 ± 2.8 kPa |  |  |  |  | 1363.6 ± 2.3 |  | 698.2 ± 1.5 | 924.8 ± 1.7 | 1203.4 ± 2.1 | 1539 ± 2.5
